Entries after “also recorded” stand apart in the source; their conditions may differ.
Assays:
[1] = tested on: SHIV AD8-EO-infected rhesus macaques; test: Safety of subcutaneous BNM-III-170 dosing regimens in SHIV AD8-EO-infected RMs; assay type: in vivo, Macaca mulatta; details: for Blood chemistries / Clinical signs: SHIV AD8-EO-infected RMs, one line per animal; for ALP: normal range 83–363 U/L
[2] = Plasma pharmacokinetics of BNM-III-170 in SHIV AD8-EO-infected RMs (HPLC-MS/MS); assay type: in vivo, Macaca mulatta
Method: Plasma concentrations of BNM-III-170 in SHIV-infected animals were measured via liquid chromatography and mass spectrometry at several timepoints following each BNM-III-170 dose for all treatment cycles.

[3] = tested on: SHIV AD8-EO; test: Plasma viral loads (RT-qPCR) in SHIV AD8-EO-infected RMs during BNM-III-170 treatment; assay type: in vivo, Macaca mulatta
Method: Next, we evaluated the ability of BNM-III-170 to reduce viral replication in these animals, measuring plasma viral loads (PVLs) at multiple timepoints during and immediately following each BNM-III-170 treatment cycle. PVLs declined by 0.92 logs in animal 14C056 following the 3 × 36 mg/kg, 3-day interval treatment cycle (between 0 h of the first dose and 9 days post third dose). […] Importantly, given the small number of animals and absence of untreated controls, it is difficult to determine if the observed reduction in PVLs in animal 14C056 was due to BNM-III-170 treatment or to the natural course of SHIV AD8 EO-infection. This highlights the need for additional, larger studies that include an untreated control arm to more accurately determine the virologic impact of BNM-III-170 on SHIV in vivo.
Plasma SHIV viral loads (SHIV-RNA copies/mL) were determined as previously described ([61]) using quantitative reverse transcription PCR (RT-qPCR) assays with a limit of detection of 60 copies/mL.

[4] = tested on: CH058TF-infected CEM.NKr cells; assay type: cell-based, HIV-1
Method: To assess the ability of bioavailable BNM-III-170 to induce conformational changes in HIV-1 Env, we assessed the capacity of the Abs naturally elicited in these infected RMs to recognize HIV-1-infected cells before and after BNM-III-170 administration. Plasma from treated animals was incubated with CH058TF-infected CEM.NKr cells, and the ability to recognize infected cells was measured by flow cytometry. […] Importantly, as observed in uninfected RMs, plasma levels of BNM-III-170 in treated, SHIV-infected RMs closely mirrored the kinetic curves for plasma binding.
Cell surface staining was performed at 48 h post-infection. Mock-infected or HIV-1-infected CEM.NKr or primary CD4+ T cells were incubated for 45 min at 37°C with anti-Env mAbs (5 µg/mL), plasma from PWH (1:1,000 dilution), or plasma from infected RMs (1:500). When indicated, antibody/plasma incubation was done in the presence of 50 µM of BNM-III-170, or equivalent amounts of DMSO. To evaluate the capacity of plasma from SHIV-AD8-EO-infected RMs treated with BNM-III-170 to recognize HIV-1-infected cells, a 1:10 plasma dilution was used. Cells were then washed twice with PBS and stained with the appropriate Alexa Fluor 647-conjugated secondary antibody (2 µg/mL) for 20 min and the viability dye AquaVivid (Thermo Fisher Scientific) at room temperature. […]

[5] = tested on: SHIV AD8-EO-infected rhesus macaques; test: Complete blood counts and flow cytometry immunophenotyping of PBMCs in SHIV AD8-EO-infected RMs after BNM-III-170; assay type: in vivo, Macaca mulatta
Method: In addition to monitoring blood chemistries, complete blood counts (CBCs) were performed immediately prior to BNM-III-170 treatment and at several post-treatment timepoints (Fig. 4A). Significant increases in white blood cell counts (WBCs) were observed between 0 h and 24 h after the terminal dose of each treatment cycle (median WBCs: 7,550 and 12,595, respectively, P-value = 0.0391). This increase in WBCs was largely attributed to increases in neutrophils (median counts at 0 h vs. 24 h of 2,926 and 8,004, P-value = 0.0078) and, to a lesser extent, monocytes (median counts at 0 h vs 24 h after the terminal dose of 696 and 1,537, P-value = 0.0391). […] Of note, this lymphopenia was generally transient (Fig. S5).
To further investigate this observed lymphopenia, multiparameter flow cytometry was performed on PBMCs from 0 h and 24 h post-terminal dose timepoints from all treatment cycles (Fig. S6). […] While the exact cause of this non-specific lymphopenia is unknown, it may be due to depletion of lymphocytes or migration of lymphocytes to tissue; the latter explanation is more consistent with the transient nature of the lymphopenia.
A 20-parameter flow cytometric analysis was performed on fresh PBMCs and mononuclear cells (10^6 cells) derived from LN biopsies using anti-human monoclonal Abs (mAbs), which we ([6], [58][–][60]) and others, including databases maintained by the NHP Reagent Resource (MassBiologics), have shown as being cross-reactive in RMs. […] All samples were fixed with 1% paraformaldehyde and acquired within 24 h of fixation. Acquisition of data was performed on a FACSymphony A5 (BD Biosciences) driven by FACS DiVa software and analyzed with FlowJo (version 10.7; Becton, Dickinson, and Company).

[6] = 36 mg/kg SQ, 2 doses, dosing interval 1 day, 36 mg/kg
[7] = 36 mg/kg SQ, 3 doses, dosing interval 3 days, 36 mg/kg
[8] = animal 14C013 at necropsy, 2 × 36 mg/kg SQ every 24 h

In the case of CNCc1ccc2c(c1)C[C@H](CN=C(N)N)[C@H]2NC(=O)C(=O)Nc1ccc(Cl)c(F)c1.O=C(O)C(F)(F)F.O=C(O)C(F)(F)F [BNM-III-170], the Blood chemistries ([1]; 24 mg/kg SQ, 1 dose, 24 mg/kg) is reported as “Transient elevation of CPK, troponin I”, the Blood chemistries [1, 6] is reported as “Elevated AST, ALT, amylase, CPK, troponin I; also recorded: Transient elevation of ALP, CPK, troponin I” and the Clinical signs [1, 6] is reported as “pale mucus membranes, weak femoral pulses, and dyspnea; also recorded: Animal experienced acute respiratory distress and tachycardia at 6 hr post dose #2 and was sacrificed; inconclusive path report, pale liver noted; also recorded: Enlarged liver and spleen, lesion at BNM-III-170 injection site”. For the same molecule, the Blood chemistries [1, 7] was “Transient elevation of AST, ALT, CPK; also recorded: Elevated BUN, BUN/Cr, CPK; low potassium”, the Clinical signs [1, 7] was “mild erythema at the BNM-III-170 injection sites; also recorded: Animal reached endpoint criteria (weight loss > 25%) due to chronic diarrhea that started prior to CD4mc treatments, animal sacrificed 3 hr post dose #2” and the Blood chemistries ([1]; 36 mg/kg SQ, 3 doses, dosing interval 7 days, 36 mg/kg) was “Transient elevation of AST, ALP, TRIG, CPK; also recorded: Transient elevation of AST, ALT, ALP, CSK; also recorded: Transient elevation of Glob, ALT, ALP, GGT, AMY, CPK”. For the same molecule, the adverse reactions ([1]; SHIV-infected RMs 14C056 and 34901, 1 × 24 mg/kg SQ) was “No adverse reactions were observed”, the “clinical signs of toxicity” value ([1]; SHIV-infected RMs, 36 mg/kg SQ doses at 7-day dosing interval) was “no clinical signs of toxicity were noted” and the ALT [1, 8] was 123 U/L. The AST [1, 8] was 145 U/L, the “troponin I” value [1, 8] was 0.28 ng/mL and the amylase ([1]; animal 14C013 at necropsy, 2 × 36 mg/kg SQ every 24 h, normal range 148–316 U/L) was 421 U/L. For the same molecule, the AST ([1]; animal 14C056, 24 h after dose 3, 36 mg/kg SQ every 3 days) was 109 U/L, the “troponin I” value ([1]; animal 34901, 6 h post-dose, 1 × 24 mg/kg SQ, resolved by 5 days post-treatment) was 0.090 ng/mL and the potassium ([1]; animal 34901 at necropsy (3 h after dose 2, 36 mg/kg SQ every 3 days), 2.4 vs 2.8 at 0 h of cycle, normal range 3–5 mmol/L) was 2.4 mmol/L. For the same molecule, the blood urea nitrogen ([1]; animal 34901 at necropsy (3 h after dose 2, 36 mg/kg SQ every 3 days), 34 at 0 h of cycle, normal range 9–27, likely due to prolonged diarrhea) was 28 mg/dL, the “ratio of blood urea nitrogen to creatinine” value ([1]; animal 34901 at necropsy (3 h after dose 2, 36 mg/kg SQ every 3 days), 37.8 at 0 h of cycle, normal range 12.5–33.3) was 35 and the “troponin I” value ([1]; animal RYj17, 6 h after dose 1 of 2 × 36 mg/kg SQ every 24 h, resolved by 24 h) was 0.049 ng/mL. It also gave an ALP ([1]; animal RYj17, 24 h after dose 2 of 2 × 36 mg/kg SQ every 24 h) of 405 U/L, an ALP ([1]; animal RYj17, 16 days later (after 24 h post dose 2), 2 × 36 mg/kg SQ every 24 h) of 715 U/L and a Cmax ([2]; SHIV AD8-EO-infected RMs, following first dose of each treatment cycle (24 or 36 mg/kg SQ)) of 4100 to 12800 ng/mL. For the same molecule, the “plasma BNM-III-170 level between doses” value ([2]; SHIV-infected RMs, 36 mg/kg once every 3 days) was “below the limit of detection”, the “plasma level 6 h after each dose” value ([2]; SHIV-infected RMs, all treatment cycles, generally) was over 675 ng/mL and the “decline in plasma viral loads (PVLs)” value ([3]; animal 14C056, 3 × 36 mg/kg SQ, 3-day interval, between 0 h of first dose and 9 days post third dose, no untreated controls) was 0.92 logs. For the same molecule, the “change in plasma viral loads (PVLs)” value ([3]; animals 14C013, RYj17, 34901, following BNM-III-170 treatments) was “no similar changes in PVLs were observed”, the “association of BNM-III-170 plasma concentrations with plasma binding to infected cells” value ([4]; each treatment cycle, Spearman correlation) was “correlated with plasma binding to infected cells” and the “time post-administration up to which RM plasma efficiently recognized infected cells” value ([4]; plasma from treated SHIV-infected RMs, depending on the dose used) was “up to 6 h”. The “white blood cell counts (WBCs), median” value ([5]; 24 h after terminal dose of each treatment cycle, 0 h median 7,550, P-value = 0.0391) was 12,595, the “monocytes, median counts” value ([5]; 24 h after terminal dose, 0 h median 696, P-value = 0.0391) was 1,537 and the “neutrophils, median counts” value ([5]; 24 h after terminal dose, 0 h median 2,926, P-value = 0.0078) was 8,004. For the same molecule, the “absolute numbers of NK cells, median” value ([5]; 24 h post-terminal dose, 0 h median 191, P = 0.0078) was 48 cells per μL blood, the “absolute numbers of CD4+ T cells, median” value ([5]; 24 h post-terminal dose, 0 h median 496, P = 0.0078) was 283 cells per μL blood and the “absolute numbers of CD8+ T cells, median” value ([5]; 24 h post-terminal dose, 0 h median 1,084, P = 0.0078) was 323.5 cells per μL blood. For the same molecule, the “absolute numbers of B cells, median” value ([5]; 24 h post-terminal dose, 0 h median 1,129, P = 0.0391) was 1,080 cells per μL blood, the “lymphocyte frequency in whole blood” value ([5]; 24 h post-terminal dose, 49% at 0 h, P = 0.0078) was 19.5% and the “lymphocyte numbers in whole blood” value ([5]; 24 h post-terminal dose, 3,774 at 0 h, P = 0.0078) was 2,068.

Source: publication PMC12090809 (Journal of Virology, 2025)
